Data from PubChem BioAssay AID1963825 (Molecular Pharmacology Branch, DTP, NCI, 2024).

Assay: Anticancer human tumor 997537-175-T-J1-PDC patient-derived colon adenocarcinoma cell line growth inhibition [POLQ]
Conditions: 997537-175-T-J1-PDC complex spheroid viability, combination with POLQ inhibitors; for IC50: curve of first compound; for viability, T/C: stronger effect = lower value
Procedure, shortened: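 PDC + HUVEC + MSC complex spheroids; POLQ inhibitors ± partner drugs; top conc. at/near clinical Cmax, else 10 microM (SN-38 1 microM), half-log dilutions; 37 degrees C, 5% CO2.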

[1] = second compound 0.0316 µM, first compound 0.0316 µM
[2] = second compound 0.0316 µM, first compound 0.1 µM
[3] = second compound 0.0316 µM, first compound 0.316 µM
[4] = second compound 0.0316 µM, first compound 1 µM
[5] = second compound 0.0316 µM, first compound 3.16 µM
[6] = second compound 0.0316 µM, first compound 10 µM
[7] = second compound 0.1 µM, first compound 0.0316 µM
[8] = second compound 0.1 µM, first compound 0.1 µM
[9] = second compound 0.1 µM, first compound 0.316 µM
[10] = second compound 0.1 µM, first compound 1 µM
[11] = second compound 0.1 µM, first compound 3.16 µM
[12] = second compound 0.1 µM, first compound 10 µM
[13] = second compound 0.316 µM, first compound 0.0316 µM
[14] = second compound 0.316 µM, first compound 0.1 µM
[15] = second compound 0.316 µM, first compound 0.316 µM
[16] = second compound 0.316 µM, first compound 1 µM
[17] = second compound 0.316 µM, first compound 3.16 µM
[18] = second compound 0.316 µM, first compound 10 µM
[19] = second compound 1 µM, first compound 0.0316 µM
[20] = second compound 1 µM, first compound 0.1 µM
[21] = second compound 1 µM, first compound 0.316 µM
[22] = second compound 1 µM, first compound 1 µM
[23] = second compound 1 µM, first compound 3.16 µM
[24] = second compound 1 µM, first compound 10 µM
[25] = second compound 3.16 µM, first compound 0.0316 µM
[26] = second compound 3.16 µM, first compound 0.1 µM
[27] = second compound 3.16 µM, first compound 0.316 µM
[28] = second compound 3.16 µM, first compound 1 µM
[29] = second compound 3.16 µM, first compound 3.16 µM
[30] = second compound 3.16 µM, first compound 10 µM
[31] = second compound 10 µM, first compound 0.0316 µM
[32] = second compound 10 µM, first compound 0.1 µM
[33] = second compound 10 µM, first compound 0.316 µM
[34] = second compound 10 µM, first compound 1 µM
[35] = second compound 10 µM, first compound 3.16 µM
[36] = second compound 10 µM, first compound 10 µM
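Also: luminescence signal used as a surrogate for viable cells; spheroids exposed to drugs for seven days before readout.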

In the case of `CCc1cc2c(N3CCc4c(cc(Cn5ccnc5)cc4-c4cn(C)nc4C(F)(F)F)C3=O)ccnc2c(OC)n1` + COC1C(OC(N)=O)C(O)C(Oc2ccc3c(O)c(NC(=O)c4ccc(O)c(CC=C(C)C)c4)c(=O)oc3c2C)OC1(C)C, the IC50 (second compound 0.0316 µM) is reported as greater than 10 µM, the IC50 (second compound 0.1 µM) is reported as greater than 10 µM and the IC50 (second compound 0.316 µM) is reported as greater than 10 µM. For the same molecule, the IC50 (second compound 1 µM) was greater than 10 µM, the IC50 (second compound 3.16 µM) was greater than 10 µM and the IC50 (second compound 10 µM) was greater than 10 µM. The viability, T/C [1] was 101%, the viability, T/C [2] was 107% and the viability, T/C [3] was 83%. It also gave a viability, T/C [4] of 86%, a viability, T/C [5] of 93.8% and a viability, T/C [6] of 57%. The viability, T/C [7] was 108%, the viability, T/C [8] was 106% and the viability, T/C [9] was 94.6%. It also gave a viability, T/C [10] of 98.5%, a viability, T/C [11] of 98.4% and a viability, T/C [12] of 52.3%. For the same molecule, the viability, T/C [13] was 97%, the viability, T/C [14] was 104% and the viability, T/C [15] was 103%. The viability, T/C [16] was 95.7%, the viability, T/C [17] was 61.9% and the viability, T/C [18] was 52.1%. The viability, T/C [19] was 113%, the viability, T/C [20] was 83.3% and the viability, T/C [21] was 71.3%. The viability, T/C [22] was 93.8%, the viability, T/C [23] was 69% and the viability, T/C [24] was 52.3%. For the same molecule, the viability, T/C [25] was 106%, the viability, T/C [26] was 99% and the viability, T/C [27] was 91.9%. It also gave a viability, T/C [28] of 76.5%, a viability, T/C [29] of 70% and a viability, T/C [30] of 64.8%. For the same molecule, the viability, T/C [31] was 110%, the viability, T/C [32] was 89.5% and the viability, T/C [33] was 93.2%. It also gave a viability, T/C [34] of 92.1%, a viability, T/C [35] of 55.6% and a viability, T/C [36] of 58.6%.

For `C#Cc1c(F)ccc2cc(O)cc(-c3ncc4c(N5CC6CCC(C5)N6)nc(OCC56CCCN5CC(F)C6)nc4c3F)c12` (stereo unspecified) + Cc1cccc(N(C)C(=O)C2C(O)CCN2c2nc(C)cc(C(F)(F)F)c2C#N)c1, the IC50 (second compound 0.0316 µM) was greater than 10 µM, the IC50 (second compound 0.1 µM) was greater than 10 µM and the IC50 (second compound 0.316 µM) was greater than 10 µM. The IC50 (second compound 1 µM) was greater than 10 µM, the IC50 (second compound 3.16 µM) was greater than 10 µM and the IC50 (second compound 10 µM) was greater than 10 µM. For the same molecule, the viability, T/C [1] was 95.2%, the viability, T/C [2] was 106% and the viability, T/C [3] was 89.2%. For the same molecule, the viability, T/C [4] was 107%, the viability, T/C [5] was 108% and the viability, T/C [6] was 109%. It also gave a viability, T/C [7] of 99.2%, a viability, T/C [8] of 102% and a viability, T/C [9] of 98.2%. For the same molecule, the viability, T/C [10] was 104%, the viability, T/C [11] was 104% and the viability, T/C [12] was 108%. The viability, T/C [13] was 106%, the viability, T/C [14] was 106% and the viability, T/C [15] was 91.6%. The viability, T/C [16] was 91.7%, the viability, T/C [17] was 121% and the viability, T/C [18] was 105%. For the same molecule, the viability, T/C [19] was 109%, the viability, T/C [20] was 107% and the viability, T/C [21] was 111%. The viability, T/C [22] was 100%, the viability, T/C [23] was 98.5% and the viability, T/C [24] was 102%. It also gave a viability, T/C [25] of 106%, a viability, T/C [26] of 83.5% and a viability, T/C [27] of 101%. It also gave a viability, T/C [28] of 112%, a viability, T/C [29] of 101% and a viability, T/C [30] of 104%. The viability, T/C [31] was 99.8%, the viability, T/C [32] was 88.6% and the viability, T/C [33] was 101%. For the same molecule, the viability, T/C [34] was 119%, the viability, T/C [35] was 94.1% and the viability, T/C [36] was 89%.

`COc1cccc2c1C(=O)c1c(O)c3c(c(O)c1C2=O)CC(O)(C(=O)CO)CC3OC1CC(N)C(O)C(C)O1` (stereo unspecified) + Nc1ccc(C#CCN(C(=O)Cc2ncc(C(F)(F)F)cc2C(F)(F)F)c2ccc(F)cc2)nn1 gave an IC50 (second compound 0.0316 µM) of 3.2 µM, an IC50 (second compound 0.1 µM) of 1.92 µM and an IC50 (second compound 0.316 µM) of 3.54 µM. The IC50 (second compound 1 µM) was 2.12 µM, the IC50 (second compound 3.16 µM) was 2.85 µM and the IC50 (second compound 10 µM) was 2.14 µM. The viability, T/C [1] was 102%, the viability, T/C [2] was 97.5% and the viability, T/C [3] was 89.1%. The viability, T/C [4] was 93.5%, the viability, T/C [5] was 50.4% and the viability, T/C [6] was 12.2%. For the same molecule, the viability, T/C [7] was 99.4%, the viability, T/C [8] was 114% and the viability, T/C [9] was 99.9%. It also gave a viability, T/C [10] of 70.6%, a viability, T/C [11] of 34.4% and a viability, T/C [12] of 7.13%. It also gave a viability, T/C [13] of 110%, a viability, T/C [14] of 109% and a viability, T/C [15] of 98.8%. The viability, T/C [16] was 87.7%, the viability, T/C [17] was 53.2% and the viability, T/C [18] was 13.9%. The viability, T/C [19] was 94.1%, the viability, T/C [20] was 109% and the viability, T/C [21] was 81.8%. It also gave a viability, T/C [22] of 79.5%, a viability, T/C [23] of 34.8% and a viability, T/C [24] of 10.2%. The viability, T/C [25] was 94.4%, the viability, T/C [26] was 107% and the viability, T/C [27] was 72.6%. The viability, T/C [28] was 78.8%, the viability, T/C [29] was 46.6% and the viability, T/C [30] was 8.26%. The viability, T/C [31] was 94.7%, the viability, T/C [32] was 97.9% and the viability, T/C [33] was 91.4%. For the same molecule, the viability, T/C [34] was 80%, the viability, T/C [35] was 34.8% and the viability, T/C [36] was 10.1%.
